The target of experiment [1] is T1, NTS1R (Homo sapiens, UniProt P30989). Nature of the experiment: Radiochemical competition binding, adherent CHO-hNTS1R cells. Particulars: labeled probe [^3H]13 (1.3 nM), 90 min, 23 °C, read-out: RC adherent cells: pKi ± SEM (converted).
Experiment [2] concerns the target T1, NTS1R. In words: Radiochemical association and dissociation kinetics, suspended CHO-hNTS1R cells. In kind it is binding. As to the method: Binding of both ligands, [^3H]13 and [^3H]18, was studied at adherent and suspended intact CHO-hNTS1R cells, and binding of [^3H]13 was additionally studied using CHO-hNTS1R cell membrane preparations (saturation and competition binding, kinetic studies). Furthermore, saturation binding experiments were performed with both ligands at intact adherent HT-29 cells. All experiments were performed in triplicate except for dissociation experiments performed with suspended cells in 50 mL flacon tubes (performed in duplicate). To reduce radioligand consumption in the aforementioned experiments, [^3H]13 and [^3H]18 were 1:1 diluted with 13 and 18, respectively (for the purpose of easier reading these mixtures are denoted "[^3H]13" and "[^3H]18"in the following). All samples were incubated at 23 ± 1 °C in the dark under gentle shaking (incubation times are outlined below). DPBS1 served as binding buffer throughout. In the case of experiments performed with cell suspensions, CHO-hNTS1R cells were seeded in T75 culture flasks 3–4 days prior to the experiment. On the day of the experiment, cells were detached by trypsinization, suspended in DPBS1 and centrifuged at 200g at rt for 5 min. Cells were resuspended in binding buffer and the cell density was adjusted to 1.5 × 10^5 to 2.5 × 10^5 cells/mL. Samples involving suspended cells or membrane preparations were prepared and incubated in 96-well polypropylene plates (Brand 701330, Wertheim, Germany) or in 50 mL polypropylene falcon tubes (Sarstedt), and the same filtration procedure for separating free radioligand from cell- or membrane bound radioligand was applied for all kind of binding experiments: after completed incubation, cells or cell membranes were collected on GF/C filter mats (0.26 mm; Whatman, Maidstone, U.K.) (pretreated with 0.3% polyethylenimine for 30 min) using an in-house manufactured harvester for 96-well plates (precision engineering workshop of the University of Regensburg, Regensburg, Germany), and the wells of the plate and the cells on the filter mat were immediately washed twice with ice-cold PBS (2 × 200 μL) (note: when samples were incubated in falcon tubes, 200-μL aliquots were transferred to the wells of a 96-well polypropylene plate after the incubation period, immediately followed by the filtration procedure). Filter pieces for each well were punched out and transferred into 1450–401 96-well sample plates (PerkinElmer, Rodgau, Germany), followed by the addition of Rotiscint Routine (Carl Roth, Karlsruhe, Germany) (200 μL). The plates were sealed with transparent sealing tape (Greiner EASYseal, part no. 676001, Greiner Bio-One) and shaken in the dark overnight before measurement of the radioactivity (dpm) using a MicroBeta2 plate counter equipped with six pairs of photomultiplier tubes (PerkinElmer).
To start the association, 20 μL of an 18 nM solution of [^3H]13 or 20 μL of a 12 nM solution of [^3H]18 in DPBS1 (final concentrations: 1.8 or 1.2 nM) were added. The samples of the different time points were prepared in reversed order (longest incubation time first, shortest incubation time last) so that the cells of all samples could be harvested simultaneously. The time span for sample incubation was 1–180 min. Adherent cells: 96-well white/clear bottom plates with adherent cells were prefilled with DPBS1 (160 μL) after initial washing of the cells. […] To start the association, 20 μL of a 13 nM solution of [^3H]13 or 20 μL of an 11 nM solution of [^3H]18 in DPBS1 (final concentrations: 1.3 or 1.1 nM) were added. When the incubation time was reached, all liquid was removed by suction followed by washing (2 × ice-cold PBS) and cell lysis. The samples of the different time points were prepared in reversed order (longest incubation time first, shortest incubation time last) so that the cells of all samples could be washed and lysed simultaneously. […]

Experiment [3] addresses T1, NTS1R. Nature of the experiment: Radiochemical saturation binding, adherent HT-29 cells. Particulars: 23 °C. As to the method:
Binding of both ligands, [^3H]13 and [^3H]18, was studied at adherent and suspended intact CHO-hNTS1R cells, and binding of [^3H]13 was additionally studied using CHO-hNTS1R cell membrane preparations (saturation and competition binding, kinetic studies). Furthermore, saturation binding experiments were performed with both ligands at intact adherent HT-29 cells. All experiments were performed in triplicate except for dissociation experiments performed with suspended cells in 50 mL flacon tubes (performed in duplicate). To reduce radioligand consumption in the aforementioned experiments, [^3H]13 and [^3H]18 were 1:1 diluted with 13 and 18, respectively (for the purpose of easier reading these mixtures are denoted "[^3H]13" and "[^3H]18"in the following). All samples were incubated at 23 ± 1 °C in the dark under gentle shaking (incubation times are outlined below). DPBS1 served as binding buffer throughout. In the case of experiments performed with cell suspensions, CHO-hNTS1R cells were seeded in T75 culture flasks 3–4 days prior to the experiment. […] The plates were sealed with transparent sealing tape (Greiner EASYseal, part no. 676001, Greiner Bio-One) and shaken in the dark overnight before measurement of the radioactivity (dpm) using a MicroBeta2 plate counter equipped with six pairs of photomultiplier tubes (PerkinElmer). […]

For orientation: koff means the rate constant with which the complex falls apart. In general, kon refers to the rate constant with which the complex forms. The term Kd denotes a measure of binding affinity in units of concentration.

T1 sequence (P30989 whole entry): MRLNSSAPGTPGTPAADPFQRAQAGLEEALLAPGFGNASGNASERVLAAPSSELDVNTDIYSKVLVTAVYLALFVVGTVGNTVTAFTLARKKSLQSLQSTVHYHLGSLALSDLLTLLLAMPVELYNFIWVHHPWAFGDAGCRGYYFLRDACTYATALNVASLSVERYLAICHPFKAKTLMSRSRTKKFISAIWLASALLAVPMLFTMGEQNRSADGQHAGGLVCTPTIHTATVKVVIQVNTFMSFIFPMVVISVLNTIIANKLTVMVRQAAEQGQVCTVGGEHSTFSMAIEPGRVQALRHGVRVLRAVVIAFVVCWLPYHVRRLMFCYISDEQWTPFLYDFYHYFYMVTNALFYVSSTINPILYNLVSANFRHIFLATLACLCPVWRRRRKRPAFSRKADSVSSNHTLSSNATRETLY

On to `CCC(=O)NCCCCNC(=O)N=C(N)NCCC[C@H](NC(=O)[C@@H]1CCCN1C(=O)[C@@H](NC(=O)CCc1cn(CCCNC(=O)c2ccc(-c3c4ccc(=[N+](C)C)cc-4oc4cc(N(C)C)ccc34)c(C(=O)[O-])c2)nn1)C1CCNCC1)C(=O)N[C@@H](CCCNC(=N)N)C(=O)N1CCC[C@H]1C(=O)N[C@@H](Cc1ccc(O)cc1)C(=O)N[C@H](C(=O)N[C@@H](CC(C)C)C(=O)O)[C@@H](C)CC` [Compound 13, N^α-(3-(1-N-((1-Carboxylato-2-(6-(dimethylamino)-3-(dimethyliminio)-3H-xanthen-9-yl)phen-5-yl)1-oxomethyl)aminoprop-3-yl-1H-1,2,3-triazol-4-yl)propanoyl)-2-(piperidin-4-yl)-Gly-Pro-N^ω-[(4-(N-propanoyl)aminobutyl)aminocarbonyl]Arg-Arg-Pro-Tyr-Ile-Leu Tris(hydrotrifluoroacetate)], for which the Ki on NTS1R [1] was 1.51 nM.
Consider `CCC(=O)NCCCCNC(=O)NC(=N)NCCC[C@H](NC(=O)[C@@H]1CCCN1C(=O)[C@@H](NC(=O)CCc1cn(CCCNC(=O)c2ccc(-c3c4ccc(=[N+](C)C)cc-4oc4cc(N(C)C)ccc34)c(C(=O)[O-])c2)nn1)C1CCNCC1)C(=O)N[C@@H](CCCNC(=N)N)C(=O)N1CCC[C@H]1C(=O)N[C@@H](Cc1ccc(O)cc1)C(=O)N[C@H](C(=O)N[C@@H](CC(C)C)C(=O)O)[C@@H](C)CC` [[^3H]13], for which the koff at NTS1R [2] (suspended CHO-hNTS1R cells (50 mL falcon tubes), 23 °C, read-out: koff [min^–1] (converted)) is 0.0006 s⁻¹. The “kobs(slow) [min^–1]” value at NTS1R [2] (suspended CHO-hNTS1R cells, biphasic exponential fit) is on record as 0.051 ± 0.001 ^b min^–1. Also, the kon on NTS1R [2] (suspended CHO-hNTS1R cells, calculated from koff, kobs(fast) and ligand concentration, read-out: kon(fast) [min^–1 nM^–1] (converted)) was 1.35e+07 M⁻¹ s⁻¹. The Kd on NTS1R [2] (suspended CHO-hNTS1R cells, koff/kon(fast), read-out: Kd(kin)) was 0.044 ± 0.02 nM. At NTS1R [2] (suspended CHO-hNTS1R cells, monophasic fit of initial association phase, 1.8 nM [^3H]13 or […] [^3H]18), the “kobs(fast) [min^–1]” value is recorded as 1.5 ± 0.3 ^a min^–1. For the same compound, on NTS1R [2] (suspended cells), the “Proportion of fast kinetic component (association)” value came to 21% and the “Proportion of slow kinetic component (association)” value turned out to be 79%. This compound also showed a Kd at NTS1R [3] of 1.2 ± 0.1 nM.

Source of the values: publication PMC11440508, “Dually Labeled Neurotensin NTS1R Ligands for Probing Radiochemical and Fluorescence-Based Binding Assays” (Journal of Medicinal Chemistry, 2024).
